In patent publication US9120819B2, “FGF-receptor agonist dimeric compounds” (SANOFI, priority 2006, dated 2015):

Columns and labels:
[1] = system: human vein endothelial cells (HUVECs); experiment: In vitro angiogenesis model (HUVEC rearrangement on matrigel, pseudotubule length); format: cell-based; conditions: at a concentration of 10 nM, 24 hours
Description: In vitro Angiogenesis Model
The products are tested in terms of inducing the rearrangement of human vein endothelial cells (HUVECs) on matrigel (Becton dickinson 356230) diluted in collagen (rat tail collagen, type I: Becton dickinson 354236). After 24 hours, the cells are observed under the microscope with a X4 objective and the length of the pseudotubules is measured by means of an image analyser (BIOCOM-Visiolab 2000 software).

[2] = system: C57 mice; experiment: Model of post-ischaemic leg revascularization in mice; format: in vivo; conditions: 30 mg/kg/day administered subcutaneously for 7 days
Description: Model of Post-Ischaemic Leg Revascularization in Mice
The experiment is carried out on C57 mice (IFFA CREDO France).
The animals are anaesthetized by intraperitonal injection, in a volume of 10 ml/kg, of a solution of 50 mg/kg ketamine (Ketamine 1000 Virbac®, Virbac Carros France) and 10 mg/kg xylazine (Rompun 2%®, Bayer Pharma Puteaux France). The animal is placed so that it is lying on its back, and after shaving and disinfection of the skin by painting with Vetedine® solution (Vetoquinol S.A. Lure France), an incision is made in the inguinal region. The femoral artery is excized, the collateral arteries are cauterized and the external and circumflex iliac arteries are ligatured. The skin is sutured with separate stitches using non-resorbable thread. The animals are placed in the recovery room, the temperature of which is regulated at 25° C., until they are completely awake.
The distal perfusion is measured using a laser Doppler scanner (LDPI Lisca Perimed model PIM II, AB Sweden). This technique makes it possible to measure the cutaneous perfusion of the upper part of the back legs. […] Measurements are carried out successively on the healthy leg and on the leg rendered ischaemic in order to establish a perfusion deficit expressed as %. […]

[3] = system: FGF-R1β-hMp1; experiment: Baf/3-FGFR1β proliferation model; format: cell-based, murine; conditions: at a concentration of 30 μM
Description: (§1) Baf/3-FGFR1β or FGF-R4α Proliferation Model
(§2) Obtaining the Chimeric Receptor Constructs
(§3) The chimeric receptors are made up of the intracellular portion of hMp1 (NM_005373) and the transmembrane and extracellular domains of FGF-R1β or FGF-R4α.
(§4) For each FGF receptor, the FGF-R (BamHI-SacI) and hMp1 (SacI-NotI) fragments are simultaneously cloned into the vector pEF6 (Invitrogen) digested with BamHI and NotI.
(§5) Murine BaF/3 cells are transfected by electroporation. 20 μg of plasmid carrying the constructs FGF-R1β-hMp1 or FGF-R4α-hMp1 are mixed with 5×10^6 cells taken up in 800 μl of RPMI (invitrogen). The mixture is subjected to two electric shocks of 400 V with an interval of 0.1 ms. The cells are taken up for 48 h in an RPMI medium containing 10% FCS (foetal calf serum, gibco), glutamine (invitrogen), NEAA (nonessential amino acids, invitrogen), NaPyr (sodium pyruvate, invitrogen) and 10 ng/ml of IL-3, before being selected with 10 μg/ml of blasticidin (Cayla).
(§6) Culture of Transfected Cells […]
(§7) A confluent culture of BaF/3 cells carrying the chimeric receptors is passaged one-in-three in culture medium supplemented with IL-3 (10 ng/ml) for 24 h. […] The plates are incubated for 28 h at 37° C. and then 100 μl of Cell Titer Glo (Promega) are added and the amount of ATP is quantified using a luminometer (Luminoskan Ascent, Labsystems).

[4] = system: FGF-R4α-hMp1; experiment: Baf/3-FGF-R4α proliferation model; format: cell-based, murine; conditions: at a concentration of 30 μM
Description: as §1, §2, §3, §4, §5, §6, §7

SMILES: COc1cc(C(=O)c2nc(-c3cccc(C(=O)[O-])c3)c3c(OCCOCCOCCOCCOCCOCCOc4cccn5c(C(=O)c6ccc(N)c(OC)c6)nc(-c6cccc(C(=O)[O-])c6)c45)cccn23)ccc1N.[Na+].[Na+] [Example 8, Disodium salt of 3,3′-(3,6,9,12,15-pentaoxaheptadecane-1,17-diylbis{oxy[3-(4-amino-3-methoxybenzoyl)imidazo[1,5-a]pyridine-8,1-diyl]})dibenzoic acid]
- activity on the in vitro angiogenesis model [1]: active

SMILES: COc1c(C)c(C(=O)c2ccc(N)c(C(=O)[O-])c2)n2cccc(OCCOCCOCCOCCOCCOCCOc3cccn4c(C(=O)c5ccc(N)c(C(=O)[O-])c5)c(C)c(OC)c34)c12.[Na+].[Na+] [Example 2, disodium salt of 3,3′-{3,6,9,12,15-pentaoxaheptadecane-1,17-diylbis[oxy(1-methoxy-2-methylindolizine-8,3-diyl)carbonyl]}bis(6-aminobenzoic acid)]
- activity on the in vitro angiogenesis model [1]: active

SMILES: Cc1c(OCCOCCOCCOCCOCCOCCOCCOc2c(C)c(C(=O)c3ccc(N)c(C(=O)[O-])c3)n3ccccc23)c2ccccn2c1C(=O)c1ccc(N)c(C(=O)[O-])c1.[Na+].[Na+] [Example 21, Disodium salt of 3,3′-{3,6,9,12,15,18-hexaoxaicosane-1,20-diylbis[oxy(2-methylindolizine-1,3-diyl)carbonyl]}bis(6-aminobenzoic acid)]
- activity in the ischaemic leg model (post-ischaemic perfusion recovery) [2]: significant activity

SMILES: Cc1c(NC(=O)c2cccc(OCC(=O)NCCNC(=O)COc3cccc(C(=O)Nc4c(C)c(C(=O)c5ccc(N)c(C(=O)[O-])c5)n5ccccc45)c3)c2)c2ccccn2c1C(=O)c1ccc(N)c(C(=O)[O-])c1.[Na+].[Na+] [Example 44]
- activity on the Baf/3-FGFR1β proliferation [3]: active
- activity on the Baf/3-FGF-R4α proliferation [4]: active
